Measurements from US20220041627A1, “PRODRUGS OF ANTI-CANCER AND ANTI-AUTOIMMUNE DISEASES THERAPEUTIC AGENTS, AND METHODS OF MAKING AND USE THEREOF” (UNIVERSITY OF MARYLAND, BALTIMORE, priority 2018, published 2022).

Assays:
γH2AX = γH2AX immunofluorescence assay in MCF7 cells; type: cell-based, human; settings: 48 h
Description: FIGS. 4A and 4B illustrate the effect of compounds 1a-1b in apoptosis. FIG. 4A: immunofluorescence of DNA cleavage protein γH2Ax was enhanced by using 5-FU and prodrugs 1a-1b. FIG. 4B: immunoblot analysis of MCF-7 cells treated with 5-FU, prodrugs 1a-1b for apoptosis markers PARP1 and Caspase 3. The cells were treated for 48 h with the indicated concentrations of compounds.
Immunohistochemistry Analysis. MCF7 cells were seeded on poly-D-lysine coated slides. Compounds were incubated with cells for 48 h. Following treatment, cells were washed once in PBS and fixed in 10% formalin for 20 min at room temperature. Methanol was used to permeabilize the cells for 10 min and PBS wash was carried out. Bovine serum albumin was used for 1 h blocking and primary antibodies for γH2AX (SCBT, #sc-517348) was incubated with the cells overnight. Fluorescent secondary antibodies were incubated with cells along with DAPI. Cells were washed trice with PBS and the slides were mounted prior to confocal imaging.
To understand the mechanism of action of prodrugs 1a-1b, the impact of the treatment of compounds 1a-1b on the γH2AX formation in MCF7 cells were determined using immunofluorescence assay (FIG. 4A). […] The effects of prodrugs 1a-1b on the PARP1 and caspase 3 cleavage in MCF7 cells were also determined using Western blots assays (FIG. 4B). […] Treatment of 5-FU and compounds 1a-1b increased the levels of cleavage of PARP1 and caspase 3 in MCF7 cells, as compared with that in the vehicle-treated controls. Therefore, prodrugs 1a-1b, similar to 5-FU, can induce MCF7 cell apoptosis, which might contribute to their pharmacological actions.

[1] = test system: wild-type C57BL/6 male mice; assay: Acute toxicity in mice; type: in vivo; settings: 100 mg/kg i.p. every other day for 15 days, compared to vehicle group
Description: FIGS. 5A and 5B illustrate the survival rate (FIG. 5A) and body weight (FIG. 5B) curves of the various groups of mice. […] Mice were treated every other day by intraperitoneal (i.p.) injection for 15 days, the survival and body weights of the mice were recorded after treatment.
Mice were treated every other day by intraperitoneal (i.p.) injection for 15 days, the survival and body weights of the mice were recorded after treatment.

breast cancer MCF7 cells = assay: Cell viability (CCK8) in breast cancer MCF7 cells; type: cell-based, human; settings: different concentrations, compared with parent drug 5-FU
Description: (§1) FIGS. 2A and 2B illustrate the anticancer effects and selectivity of 5-FU and compounds 1a-1c. Cell viability was analyzed after the breast cancer MCF7 cells (FIG. 2A) and normal MEC1 cells (FIG. 2B) were treated with 5-FU or compounds 1a-1c at different concentrations. Data are presented as mean±SD, n=4.
(§2) Cell Counting Kit-8 (CCK8, Dojingo) was used to carry out the cytotoxicity assessment of the prodrugs. Seeded cells were treated with varying compound concentrations for 48-72 h and the CCK8 kit was used to measure the cytotoxicity. For NAC experiments, this ROS scavenger was pre-incubated with the cells for 2 h and then co-incubated with the prodrugs for additional 48 hours unless otherwise noted.
(§3) The anticancer effects of new compounds 1a and 1b were tested using the breast cancer MCF7 cells and normal MEC1 cells (FIGS. 2A and 2B). […] These differential killing results highlight the specificity of new prodrugs 1a-1b for cancer cells over normal cells. […] To further verify the role of ROS in the drug release process, the MTT assays was performed, using MCF7 cells pretreated with the ROS scavenger N-Acetyl-Cysteine (NAC).

COLO 205 = assay: NCI-60 growth inhibition, COLO 205; type: cell-based, human
Source text: The anticancer effects of compounds 1a-1b against 60 human cancer cell lines (the Developmental Therapeutics Program of NCI) were studied. The cell lines were derived from different cancer types including leukemia, non-small-cell lung cancer, colon cancer, CNS cancer, melanoma, ovarian cancer, renal cancer, prostate cancer, and breast cancer (Table 1; the assay protocol can be found at: https://dtp.cancer.gov/default.htm). Compound 1a caused over 50% growth inhibition for most tested cell lines. […] Without wishing to be bound by any particular theory, it is believed that the differences in the anticancer effects between compounds 1a and 1b may be due to the more favorable cell membrane permeability of the boronic ester 1a.

[2] = Cell viability (CCK8) in normal MEC1 cells; type: cell-based
Description: as §1, §2, §3

| Structure (SMILES) | γH2AX formation (γH2AX) | body weights [1] | antiproliferative activity / anticancer effects (breast cancer MCF7 cells) | inhibition at 50 µM (COLO 205; Homo sapiens, Colon Cancer COLO 205, 48 h) | viability at 100 µM [2] | Growth Inhibition (%) (COLO 205; Colon Cancer COLO 205, 50 μM, 48 h) |
| --- | --- | --- | --- | --- | --- | --- |
| CC1(C)OB(c2ccc(Cn3cc(F)c(=O)[nH]c3=O)cc2)OC1(C)C [Compound 1a, 5-Fluoro-1-(4-(4,4,5,5-tetramethyl-1,3,2-dioxaborolan-2-yl)benzyl)pyrimidine-2,4(1H,3H)-dione] | dramatically increased | no obvious changes | comparable antiproliferative activity as that of the parent drug 5-FU | 64% | > 95% |  |
| O=c1[nH]c(=O)n(Cc2ccc(B(O)O)cc2)cc1F [Compound 1b, (4-((5-Fluoro-2,4-dioxo-3,4-dihydropyrimidin-I(2H)-yl)methyl)phenyl)boronic acid] | dramatically increased |  |  |  |  | 8% |
